According to patent US5834259A, “Process and composition for preparing D-aspartic acid” (Monsanto Company, priority 1996, dated 1998):

Key:
Assay type in all cases: biochemical, E. coli K12
[1] = biological target: T1, L-aspartate-α-decarboxylase (Escherichia coli, UniProt P0A790); experiment: Temperature study, 45° C. (Example 9); settings: for concentration in supernatant fluid / percent remaining: 1.0M, 100 g/l cells
T1 construct: expressed in transfected cells; host or cells: E. coli W3110 transformed with pIF309 = strain NS3291 (ATCC 98675), whole cells
T1 sequence (P0A790 25-126): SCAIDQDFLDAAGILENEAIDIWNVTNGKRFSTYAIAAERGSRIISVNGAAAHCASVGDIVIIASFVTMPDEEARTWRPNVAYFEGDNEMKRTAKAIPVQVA
T1 sequence (P0A790 1-24): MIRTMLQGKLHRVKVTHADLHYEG
Description: 133.1 g (1 mol) of D/L-aspartic acid was dissolved in deionized H2 O and the pH was adjusted to 7.0 with 10N NaOH, approximately 100 ml. Cells, freshly thawed from -80° C., were added to achieve a final concentration of 100 g/l. Three 2 L fermentors were each charged with 963 ml of substrate solution and 137 ml of cells and then heated to 37° C. and 45° C. while mixing at 300 rpm or heated to 50° C. while mixing at 450 rpm. Samples, approximately 1 ml, were removed over time and pH adjusted to 7.0 with either NaOH or HCl. After centrifugation to remove cells, the supernatant fluid was analyzed for both D- and L-aspartic acid.

[2] = biological target: T1, L-aspartate-α-decarboxylase; experiment: 1.0M D/L-aspartate, 50 g/l cells, reaction B (Example 6); settings: 37° C.
Description: (§1) 1.0M D/L-aspartate was tested as a substrate for two enzyme cell loads, 100 g/l cells, referred to here as reaction "A", and 50 g/l cells, referred to here as reaction "B".
(§2) 133.1 g of D/L-aspartic acid was dissolved in approximately 600 ml deionized H2 O and pH was adjusted to 7.0 with NaOH, using 100 ml of 10N NaOH and a small amount of 1.0N NaOH. The substrate for reaction A was brought to 963 ml with deionized H2 O. The reaction was started with 137 ml cells that were stored in the cold room. For reaction B, the substrate was brought to a volume of 981.5 ml. The reaction was started with […] cells.
(§3) Both reactions were carried out in 2 L fermentors at pH 7.0 without constant adjustments and at 37° C. Samples were removed over time, centrifuged and the supernatant fluid was diluted and submitted for D- and L-aspartic acid HPLC analysis.

[3] = biological target: T1, L-aspartate-α-decarboxylase; experiment: 1.0M D/L-aspartate, 100 g/l cells, reaction A (Example 6); settings: 1.0M, 100 g/l cells, 37° C.
Description: as §1, §2, §3

[4] = biological target: T1, L-aspartate-α-decarboxylase; experiment: NH4OH neutralized 1.0M D/L-aspartate substrate (Example 7); settings: 1.0M, NH4OH neutralized, 37° C.
Description: Cells were stored frozen at -80° C. 133.1 g (1 mol) D/L-aspartic acid was dissolved in approximately 600 ml deionized H2 O and adjusted to a pH of about 7 with concentrated NH4 OH. The final volume of substrate was brought to 963 ml to which was added 137 ml cells, freshly thawed. The mixture was placed in the 2 L fermentor and the temperature adjusted to 37° C. No automatic pH control was used, however, the pH was monitored as samples were removed and the pH adjusted with 50% NH4 OH. Samples, approximately 1 ml, were removed periodically, centrifuged, and the supernatant fluid was stored frozen prior to diluting and HPLC analysis.

[5] = biological target: T1, L-aspartate-α-decarboxylase; experiment: Bioconversion of 0.5M D/L-aspartate with NS3291 cells (Example 3)
Description: 66.5 g (0.5M) D/L-aspartate (Sigma, A-9006) was weighed into a 2 L beaker and the pH adjusted to 7.0 with 10N NaOH. The volume was brought to 963 ml with deionized H2 O. 137 ml of cells (NS 3291, described above) were added at a packed cell volume ("PCV") of 7.31 g/10 ml cells resulting in a final volume of 1.1 L. Samples (approximately 1 ml each) were removed over time, centrifuged and the supernatant fluid was analyzed by HPLC for D- and L-aspartic acid content.
In all of the Examples herein, D- and L-aspartic acid isomers were quantified by HPLC using the following precolumn derivatization method. Aspartic acid was converted into diastereomers using ortho-phthalaldehyde and N-acetyl-L-cysteine. Separation of the diastereomers was achieved on a Supelcosil™ LC-18DB, 3μ, 150×4.6 mm column using a mobile phase of A: 20% methanol/80% triethylamine phosphate and B: methanol, and a step gradient as follows: […]
Retention times were 4.19 minutes and 4.54 minutes for D-aspartic acid and L-aspartic acid, respectively.
Samples from bioconversions were centrifuged to remove cells in a microcentrifuge and the supernatant fluid diluted appropriately such that the value determined from the HPLC fell within the linear region of the standard curve. These dilutions were usually between 1:100 and 1:200, made with deionized water.

Q: `N[C@H](CC(=O)O)C(=O)O` [D-Asp, D-aspartic acid] was tested. Which “stability of the isomer” value [1] did it give?
A: stable

Q: What about the “concentration in supernatant fluid” value ([1]; 0.000 hr) of the same molecule?
A: 55.280 mg/mL

Q: What about the “concentration in supernatant fluid” value ([1]; 2.5000 hr) of the same molecule?
A: 54.820 mg/mL

Q: And the percent remaining ([1]; 2.5000 hr)?
A: 99.168%

Q: And the “concentration in supernatant fluid” value ([1]; 4.0000 hr)?
A: 53.960 mg/mL

Q: What about the percent remaining ([1]; 4.0000 hr) of the same molecule?
A: 97.612%

Q: And the “concentration in supernatant fluid” value ([1]; 6.0000 hr)?
A: 53.460 mg/mL

Q: And the percent remaining ([1]; 6.0000 hr)?
A: 96.708%

Q: And the “concentration in supernatant fluid” value ([1]; 8.0000 hr)?
A: 54.040 mg/mL

Q: What about the percent remaining ([1]; 8.0000 hr) of the same molecule?
A: 97.757%

Q: What about the “concentration in supernatant fluid” value ([1]; 10.000 hr) of the same molecule?
A: 54.870 mg/mL

Q: And the percent remaining ([1]; 10.000 hr)?
A: 99.258%

Q: What about the “concentration in supernatant fluid” value ([1]; 12.000 hr) of the same molecule?
A: 54.060 mg/mL

Q: And the percent remaining ([1]; 12.000 hr)?
A: 97.793%

Q: What about the “concentration in supernatant fluid” value ([1]; 20.000 hr) of the same molecule?
A: 52.360 mg/mL

Q: What about the percent remaining ([1]; 20.000 hr) of the same molecule?
A: 94.718%

Q: And the “concentration in supernatant fluid” value ([1]; 24.000 hr)?
A: 51.310 mg/mL

Q: What about the percent remaining ([1]; 24.000 hr) of the same molecule?
A: 92.818%

Q: And the “concentration in supernatant fluid” value ([1]; 29.000 hr)?
A: 53.830 mg/mL

Q: What about the percent remaining ([1]; 29.000 hr) of the same molecule?
A: 97.377%

Q: And the “concentration in supernatant fluid” value ([1]; 34.000 hr)?
A: 52.880 mg/mL

Q: And the percent remaining ([1]; 34.000 hr)?
A: 95.658%

Q: What about the “concentration in supernatant fluid” value ([1]; 44.000 hr) of the same molecule?
A: 53.640 mg/mL

Q: What about the percent remaining ([1]; 44.000 hr) of the same molecule?
A: 97.033%

Q: What about the “concentration in supernatant fluid” value ([1]; 48.000 hr) of the same molecule?
A: 52.730 mg/mL

Q: And the percent remaining ([1]; 48.000 hr)?
A: 95.387%

Q: And the “concentration in supernatant fluid” value ([1]; 68.000 hr)?
A: 53.560 mg/mL

Q: What about the percent remaining ([1]; 68.000 hr) of the same molecule?
A: 96.889%

Q: What about the “concentration in supernatant fluid” value ([1]; 92.000 hr) of the same molecule?
A: 53.560 mg/mL

Q: What about the percent remaining ([1]; 92.000 hr) of the same molecule?
A: 96.889%

Q: And the “concentration in supernatant fluid” value ([2]; 0.0000 hr)?
A: 56.730 mg/mL

Q: What about the “concentration in supernatant fluid” value ([2]; 2.0000 hr) of the same molecule?
A: 52.420 mg/mL

Q: What about the “concentration in supernatant fluid” value ([2]; 4.5000 hr) of the same molecule?
A: 51.340 mg/mL

Q: What about the “concentration in supernatant fluid” value ([2]; 7.0000 hr) of the same molecule?
A: 50.470 mg/mL

Q: And the “concentration in supernatant fluid” value ([3]; 0.0000 hr)?
A: 53.600 mg/mL

Q: And the “concentration in supernatant fluid” value ([3]; 2.0000 hr)?
A: 50.680 mg/mL

Q: And the “concentration in supernatant fluid” value ([3]; 4.5000 hr)?
A: 44.920 mg/mL

Q: What about the “concentration in supernatant fluid” value ([3]; 7.0000 hr) of the same molecule?
A: 42.260 mg/mL

Q: And the “concentration in supernatant fluid” value ([3]; 22.500 hr)?
A: 35.680 mg/mL

Q: And the “concentration in supernatant fluid” value ([3]; 24.000 hr)?
A: 34.420 mg/mL

Q: What about the “concentration in supernatant fluid” value ([3]; 31.000 hr) of the same molecule?
A: 32.660 mg/mL

Q: What about the “concentration in supernatant fluid” value ([3]; 37.500 hr) of the same molecule?
A: 27.950 mg/mL

Q: What about the “concentration in supernatant fluid” value ([3]; 47.000 hr) of the same molecule?
A: 20.710 mg/mL

Q: What about the “concentration in supernatant fluid” value ([3]; 50.500 hr) of the same molecule?
A: 18.490 mg/mL

Q: What about the “concentration in supernatant fluid” value ([3]; 53.800 hr) of the same molecule?
A: 13.730 mg/mL

Q: And the “concentration in supernatant fluid” value ([3]; 58.000 hr)?
A: 13.410 mg/mL

Q: What about the “concentration in supernatant fluid” value ([3]; 70.000 hr) of the same molecule?
A: 6.1300 mg/mL

Q: And the “concentration in supernatant fluid” value ([3]; 72.000 hr)?
A: 5.3900 mg/mL

Q: And the “concentration in supernatant fluid” value ([4]; 0.0000 hr)?
A: 55.260 mg/mL

Q: And the “concentration in supernatant fluid” value ([4]; 3.0000 hr)?
A: 54.670 mg/mL

Q: And the percent remaining ([4]; 3.0000 hr)?
A: 98.932%

Q: And the “concentration in supernatant fluid” value ([4]; 6.0000 hr)?
A: 49.100 mg/mL

Q: And the percent remaining ([4]; 6.0000 hr)?
A: 88.853%

Q: And the “concentration in supernatant fluid” value ([4]; 9.0000 hr)?
A: 47.810 mg/mL

Q: And the percent remaining ([4]; 9.0000 hr)?
A: 86.518%

Q: And the “concentration in supernatant fluid” value ([4]; 19.000 hr)?
A: 43.490 mg/mL

Q: What about the percent remaining ([4]; 19.000 hr) of the same molecule?
A: 78.701%

Q: And the “concentration in supernatant fluid” value ([4]; 23.500 hr)?
A: 39.120 mg/mL

Q: And the percent remaining ([4]; 23.500 hr)?
A: 70.793%

Q: And the “concentration in supernatant fluid” value ([4]; 28.000 hr)?
A: 36.290 mg/mL

Q: What about the percent remaining ([4]; 28.000 hr) of the same molecule?
A: 65.671%

Q: And the “concentration in supernatant fluid” value ([4]; 32.500 hr)?
A: 33.540 mg/mL

Q: What about the percent remaining ([4]; 32.500 hr) of the same molecule?
A: 60.695%

Q: And the “concentration in supernatant fluid” value ([4]; 43.000 hr)?
A: 30.370 mg/mL

Q: And the percent remaining ([4]; 43.000 hr)?
A: 54.958%

Q: What about the “concentration in supernatant fluid” value ([4]; 49.000 hr) of the same molecule?
A: 21.580 mg/mL

Q: And the percent remaining ([4]; 49.000 hr)?
A: 39.052%

Q: What about the percent remaining ([5]; 5.5000 hr) of the same molecule?
A: 100.07%

Q: What about the percent remaining ([5]; 24.500 hr) of the same molecule?
A: 99.829%

Q: What about the percent remaining ([5]; 26.500 hr) of the same molecule?
A: 94.676%

Q: And the percent remaining ([5]; 32.500 hr)?
A: 95.870%

Q: And the percent remaining ([5]; 47.500 hr)?
A: 95.768%

Q: And the percent remaining ([5]; 52.000 hr)?
A: 96.894%

Q: What about the percent remaining ([5]; 68.000 hr) of the same molecule?
A: 87.099%
